According to ChEMBL document CHEMBL5465560, “Selectivity Literature for EUbOPEN Chemogenomic Library” (2024):
Values belong to the compound of their own block, whether it stands above or below them.

Legend:
[1] = target: Cyclin-dependent kinase 11B (Homo sapiens) (UniProt P21127); experiment: Selectivity interaction (KinomeScan (DiscoverX)) EUB0001079a CDK11B; conditions: at 1 µM
[2] = target: T1, Dual specificity mitogen-activated protein kinase kinase 6 (Homo sapiens) (UniProt P52564); experiment: Selectivity interaction (Millipore kinase profiler) EUB0000124b MAP2K6; conditions: at 10 µM
T1 sequence (whole entry): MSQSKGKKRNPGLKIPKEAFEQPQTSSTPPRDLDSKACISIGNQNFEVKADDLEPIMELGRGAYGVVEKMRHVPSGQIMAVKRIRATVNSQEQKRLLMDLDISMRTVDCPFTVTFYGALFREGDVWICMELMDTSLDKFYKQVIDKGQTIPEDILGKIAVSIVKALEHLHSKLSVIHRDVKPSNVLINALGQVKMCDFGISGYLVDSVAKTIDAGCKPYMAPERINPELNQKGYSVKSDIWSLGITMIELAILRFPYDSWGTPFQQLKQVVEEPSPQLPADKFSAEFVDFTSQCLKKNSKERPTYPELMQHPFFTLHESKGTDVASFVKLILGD

[3] = target: Ribosomal protein S6 kinase alpha-4 (Homo sapiens) (UniProt O75676); experiment: Selectivity interaction (KinomeScan (DiscoverX)) EUB0000607a RPS6KA4; conditions: at 10 µM
Sequence of Ribosomal protein S6 kinase alpha-4 (Homo sapiens) (O75676 whole entry, looked up, canonical isoform): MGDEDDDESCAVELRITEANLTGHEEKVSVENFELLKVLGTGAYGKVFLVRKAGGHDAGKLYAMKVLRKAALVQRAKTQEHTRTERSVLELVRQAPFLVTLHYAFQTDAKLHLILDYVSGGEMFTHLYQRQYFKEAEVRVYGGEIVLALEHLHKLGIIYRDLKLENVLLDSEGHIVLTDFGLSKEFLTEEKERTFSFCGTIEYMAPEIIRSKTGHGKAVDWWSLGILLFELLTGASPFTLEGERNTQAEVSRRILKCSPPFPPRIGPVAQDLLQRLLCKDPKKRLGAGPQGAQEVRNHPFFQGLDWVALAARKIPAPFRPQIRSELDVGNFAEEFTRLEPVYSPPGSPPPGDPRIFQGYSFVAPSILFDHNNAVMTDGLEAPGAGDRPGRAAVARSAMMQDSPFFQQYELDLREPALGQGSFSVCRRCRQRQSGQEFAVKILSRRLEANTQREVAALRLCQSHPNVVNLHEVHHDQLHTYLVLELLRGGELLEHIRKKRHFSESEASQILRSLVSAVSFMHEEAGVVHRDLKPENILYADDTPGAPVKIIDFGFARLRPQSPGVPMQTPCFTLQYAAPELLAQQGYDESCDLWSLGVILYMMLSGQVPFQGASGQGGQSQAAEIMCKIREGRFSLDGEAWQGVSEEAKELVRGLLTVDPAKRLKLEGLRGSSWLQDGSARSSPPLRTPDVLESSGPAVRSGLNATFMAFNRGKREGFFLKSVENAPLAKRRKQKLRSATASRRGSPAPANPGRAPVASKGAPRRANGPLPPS

[4] = target: T2, Phosphatidylinositol 4,5-bisphosphate 3-kinase catalytic subunit delta isoform (Homo sapiens) (UniProt O00329); experiment: Selectivity interaction (KinomeScan (DiscoverX)) EUB0000595a PIK3CD; conditions: at 10 µM
T2 sequence (whole entry): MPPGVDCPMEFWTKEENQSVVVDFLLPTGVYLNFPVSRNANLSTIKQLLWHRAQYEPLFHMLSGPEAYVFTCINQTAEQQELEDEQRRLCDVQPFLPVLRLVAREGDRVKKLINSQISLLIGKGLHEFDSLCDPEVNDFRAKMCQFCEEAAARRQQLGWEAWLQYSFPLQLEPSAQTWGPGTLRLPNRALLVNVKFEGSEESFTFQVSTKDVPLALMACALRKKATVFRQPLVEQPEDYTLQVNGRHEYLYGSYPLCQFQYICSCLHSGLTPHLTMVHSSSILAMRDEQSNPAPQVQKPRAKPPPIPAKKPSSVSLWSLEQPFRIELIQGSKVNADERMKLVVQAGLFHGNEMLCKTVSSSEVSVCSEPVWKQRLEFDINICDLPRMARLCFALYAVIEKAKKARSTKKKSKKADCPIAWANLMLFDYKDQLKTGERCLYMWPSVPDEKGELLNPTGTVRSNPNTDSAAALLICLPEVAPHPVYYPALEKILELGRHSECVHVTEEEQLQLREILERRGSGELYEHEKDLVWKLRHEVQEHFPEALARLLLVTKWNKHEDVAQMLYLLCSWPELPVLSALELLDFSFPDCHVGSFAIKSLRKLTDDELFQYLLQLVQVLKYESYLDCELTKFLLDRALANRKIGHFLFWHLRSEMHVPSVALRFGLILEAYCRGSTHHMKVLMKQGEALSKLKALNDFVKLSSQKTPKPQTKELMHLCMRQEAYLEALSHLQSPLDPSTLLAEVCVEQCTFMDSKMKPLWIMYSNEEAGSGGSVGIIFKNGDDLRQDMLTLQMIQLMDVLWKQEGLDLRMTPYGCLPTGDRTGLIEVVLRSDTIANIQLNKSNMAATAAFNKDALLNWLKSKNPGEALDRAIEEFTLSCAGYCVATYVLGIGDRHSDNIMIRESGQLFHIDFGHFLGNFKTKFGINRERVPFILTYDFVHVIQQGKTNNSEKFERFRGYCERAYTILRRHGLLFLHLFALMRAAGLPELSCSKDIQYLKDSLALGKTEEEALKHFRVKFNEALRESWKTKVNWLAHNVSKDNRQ

[5] = target: T3, Serine/threonine-protein kinase TAO1 (Homo sapiens) (UniProt Q7L7X3); experiment: Selectivity interaction (Kinase panel (KiNativ target engagement assay in Jurkat cells)) EUB0001635a TAOK1; assay type: cell-based; conditions: Selectivity number of off-targets 0.0, Selectivity number of targets 233.0, Source Knowledge https://www.sciencedirect.com/science/article/pii/S2451945619300674?via%3Dihub, at 1 µM
T3 sequence (whole entry): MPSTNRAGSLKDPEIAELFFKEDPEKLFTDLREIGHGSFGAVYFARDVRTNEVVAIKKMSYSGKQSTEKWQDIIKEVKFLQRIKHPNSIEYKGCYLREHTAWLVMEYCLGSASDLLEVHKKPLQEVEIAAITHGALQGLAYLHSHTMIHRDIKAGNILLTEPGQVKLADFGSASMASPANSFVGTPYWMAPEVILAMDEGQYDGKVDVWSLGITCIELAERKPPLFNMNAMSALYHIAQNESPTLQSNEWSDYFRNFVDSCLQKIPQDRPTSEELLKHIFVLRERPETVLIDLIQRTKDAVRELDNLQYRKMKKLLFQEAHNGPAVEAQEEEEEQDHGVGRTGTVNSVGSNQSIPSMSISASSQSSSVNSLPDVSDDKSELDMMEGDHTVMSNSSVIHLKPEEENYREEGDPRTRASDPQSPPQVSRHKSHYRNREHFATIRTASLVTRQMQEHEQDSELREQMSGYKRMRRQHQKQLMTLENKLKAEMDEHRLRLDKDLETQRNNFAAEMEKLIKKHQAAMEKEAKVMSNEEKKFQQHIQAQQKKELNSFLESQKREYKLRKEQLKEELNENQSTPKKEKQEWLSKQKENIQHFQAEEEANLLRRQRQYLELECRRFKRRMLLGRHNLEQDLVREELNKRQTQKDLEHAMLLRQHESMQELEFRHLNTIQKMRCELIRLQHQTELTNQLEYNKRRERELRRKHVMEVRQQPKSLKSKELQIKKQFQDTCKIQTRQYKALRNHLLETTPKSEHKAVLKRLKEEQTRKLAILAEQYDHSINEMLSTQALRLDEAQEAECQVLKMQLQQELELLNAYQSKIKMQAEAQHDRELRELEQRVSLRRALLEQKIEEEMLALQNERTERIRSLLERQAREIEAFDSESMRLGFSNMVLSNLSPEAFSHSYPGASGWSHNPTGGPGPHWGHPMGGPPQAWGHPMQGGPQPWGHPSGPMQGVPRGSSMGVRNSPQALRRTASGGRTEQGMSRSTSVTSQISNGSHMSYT

[6] = target: Phosphatidylinositol 4-phosphate 3-kinase C2 domain-containing subunit beta (Homo sapiens) (UniProt O00750); conditions: at 10 µM
Sequence of Phosphatidylinositol 4-phosphate 3-kinase C2 domain-containing subunit beta (Homo sapiens) (O00750 whole entry, the tested form may be a part): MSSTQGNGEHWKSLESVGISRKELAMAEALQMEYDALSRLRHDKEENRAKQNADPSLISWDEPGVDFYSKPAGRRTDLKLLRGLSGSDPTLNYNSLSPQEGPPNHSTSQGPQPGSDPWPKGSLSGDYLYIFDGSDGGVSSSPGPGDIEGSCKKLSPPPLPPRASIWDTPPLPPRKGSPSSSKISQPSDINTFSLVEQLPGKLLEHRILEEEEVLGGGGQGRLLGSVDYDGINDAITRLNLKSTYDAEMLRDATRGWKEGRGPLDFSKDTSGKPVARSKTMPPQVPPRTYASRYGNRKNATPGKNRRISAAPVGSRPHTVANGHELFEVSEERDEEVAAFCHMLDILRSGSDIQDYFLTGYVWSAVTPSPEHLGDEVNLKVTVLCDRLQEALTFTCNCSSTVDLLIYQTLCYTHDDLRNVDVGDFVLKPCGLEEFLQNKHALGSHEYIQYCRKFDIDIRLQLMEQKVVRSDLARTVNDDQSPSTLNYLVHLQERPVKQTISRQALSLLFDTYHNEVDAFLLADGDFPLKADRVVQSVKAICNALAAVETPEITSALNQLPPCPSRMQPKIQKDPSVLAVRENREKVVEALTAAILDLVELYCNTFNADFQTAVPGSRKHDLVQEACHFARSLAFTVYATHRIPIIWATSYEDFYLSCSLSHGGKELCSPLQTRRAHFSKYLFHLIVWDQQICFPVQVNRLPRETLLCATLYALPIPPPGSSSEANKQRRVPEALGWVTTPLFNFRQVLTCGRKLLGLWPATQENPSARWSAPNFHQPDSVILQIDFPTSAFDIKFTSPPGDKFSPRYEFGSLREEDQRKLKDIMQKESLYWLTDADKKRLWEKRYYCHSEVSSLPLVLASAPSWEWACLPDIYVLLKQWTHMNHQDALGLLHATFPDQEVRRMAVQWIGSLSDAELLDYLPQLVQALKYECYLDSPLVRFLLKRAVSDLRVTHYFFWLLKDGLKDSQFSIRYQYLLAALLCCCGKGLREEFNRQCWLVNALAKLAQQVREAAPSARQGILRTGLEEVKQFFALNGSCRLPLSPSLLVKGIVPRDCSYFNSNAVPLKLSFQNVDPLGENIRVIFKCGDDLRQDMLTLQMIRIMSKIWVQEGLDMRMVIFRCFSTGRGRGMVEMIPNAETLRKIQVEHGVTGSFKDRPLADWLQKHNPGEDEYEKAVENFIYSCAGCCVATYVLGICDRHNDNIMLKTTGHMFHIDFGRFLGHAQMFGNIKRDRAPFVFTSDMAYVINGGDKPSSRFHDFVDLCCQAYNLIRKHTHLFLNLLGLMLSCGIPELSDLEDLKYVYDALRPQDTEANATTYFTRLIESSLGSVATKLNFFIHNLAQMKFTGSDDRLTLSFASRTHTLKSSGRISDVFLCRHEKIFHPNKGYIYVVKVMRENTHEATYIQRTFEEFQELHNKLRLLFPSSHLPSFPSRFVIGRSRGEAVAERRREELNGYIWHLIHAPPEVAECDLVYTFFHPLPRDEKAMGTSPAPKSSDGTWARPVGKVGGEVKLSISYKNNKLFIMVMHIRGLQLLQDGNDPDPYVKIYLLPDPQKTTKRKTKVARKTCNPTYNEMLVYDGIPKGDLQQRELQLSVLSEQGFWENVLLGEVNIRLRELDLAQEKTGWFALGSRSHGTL

[7] = target: Serine/threonine-protein kinase MARK2 (Homo sapiens) (UniProt Q7KZI7); experiment: Selectivity interaction (ActivX KiNativ screen (kinase selectivity in THP-1 cell lysates)) EUB0000639a MARK2; assay type: subcellular; conditions: lysate, at 5 µM
Sequence of Serine/threonine-protein kinase MARK2 (Homo sapiens) (Q7KZI7 whole entry): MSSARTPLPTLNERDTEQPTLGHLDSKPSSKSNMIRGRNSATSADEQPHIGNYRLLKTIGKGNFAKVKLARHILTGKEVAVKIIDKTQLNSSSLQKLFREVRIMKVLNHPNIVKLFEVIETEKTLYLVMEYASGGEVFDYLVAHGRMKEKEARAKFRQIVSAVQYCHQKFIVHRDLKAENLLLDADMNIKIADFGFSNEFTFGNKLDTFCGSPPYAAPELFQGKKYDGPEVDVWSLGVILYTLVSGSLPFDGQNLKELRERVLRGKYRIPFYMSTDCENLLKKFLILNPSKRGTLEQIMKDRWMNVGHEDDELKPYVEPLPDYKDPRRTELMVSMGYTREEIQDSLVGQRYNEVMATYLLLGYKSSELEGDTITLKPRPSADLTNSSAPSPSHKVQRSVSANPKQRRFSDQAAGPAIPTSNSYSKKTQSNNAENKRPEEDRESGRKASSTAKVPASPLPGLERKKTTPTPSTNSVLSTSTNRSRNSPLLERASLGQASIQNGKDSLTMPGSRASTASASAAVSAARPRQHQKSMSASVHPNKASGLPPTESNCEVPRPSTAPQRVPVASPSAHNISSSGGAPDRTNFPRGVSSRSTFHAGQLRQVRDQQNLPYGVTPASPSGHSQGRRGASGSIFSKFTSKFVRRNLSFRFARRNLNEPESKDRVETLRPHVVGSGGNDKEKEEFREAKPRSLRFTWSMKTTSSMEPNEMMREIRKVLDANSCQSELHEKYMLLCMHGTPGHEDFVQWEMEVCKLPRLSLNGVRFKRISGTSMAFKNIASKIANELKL

[8] = target: Bromodomain testis-specific protein (Homo sapiens) (UniProt Q58F21); experiment: Selectivity interaction (Bromodomain panel (DSF asssay)) EUB0000270b BRDT
[9] = target: Tyrosine-protein kinase JAK1 (Homo sapiens, UniProt P23458); experiment: Selectivity interaction (Kinase panel (Carna Biosciences)) EUB0001542aTs JAK1; conditions: at 1 µM
Sequence of Tyrosine-protein kinase JAK1 (P23458 whole entry): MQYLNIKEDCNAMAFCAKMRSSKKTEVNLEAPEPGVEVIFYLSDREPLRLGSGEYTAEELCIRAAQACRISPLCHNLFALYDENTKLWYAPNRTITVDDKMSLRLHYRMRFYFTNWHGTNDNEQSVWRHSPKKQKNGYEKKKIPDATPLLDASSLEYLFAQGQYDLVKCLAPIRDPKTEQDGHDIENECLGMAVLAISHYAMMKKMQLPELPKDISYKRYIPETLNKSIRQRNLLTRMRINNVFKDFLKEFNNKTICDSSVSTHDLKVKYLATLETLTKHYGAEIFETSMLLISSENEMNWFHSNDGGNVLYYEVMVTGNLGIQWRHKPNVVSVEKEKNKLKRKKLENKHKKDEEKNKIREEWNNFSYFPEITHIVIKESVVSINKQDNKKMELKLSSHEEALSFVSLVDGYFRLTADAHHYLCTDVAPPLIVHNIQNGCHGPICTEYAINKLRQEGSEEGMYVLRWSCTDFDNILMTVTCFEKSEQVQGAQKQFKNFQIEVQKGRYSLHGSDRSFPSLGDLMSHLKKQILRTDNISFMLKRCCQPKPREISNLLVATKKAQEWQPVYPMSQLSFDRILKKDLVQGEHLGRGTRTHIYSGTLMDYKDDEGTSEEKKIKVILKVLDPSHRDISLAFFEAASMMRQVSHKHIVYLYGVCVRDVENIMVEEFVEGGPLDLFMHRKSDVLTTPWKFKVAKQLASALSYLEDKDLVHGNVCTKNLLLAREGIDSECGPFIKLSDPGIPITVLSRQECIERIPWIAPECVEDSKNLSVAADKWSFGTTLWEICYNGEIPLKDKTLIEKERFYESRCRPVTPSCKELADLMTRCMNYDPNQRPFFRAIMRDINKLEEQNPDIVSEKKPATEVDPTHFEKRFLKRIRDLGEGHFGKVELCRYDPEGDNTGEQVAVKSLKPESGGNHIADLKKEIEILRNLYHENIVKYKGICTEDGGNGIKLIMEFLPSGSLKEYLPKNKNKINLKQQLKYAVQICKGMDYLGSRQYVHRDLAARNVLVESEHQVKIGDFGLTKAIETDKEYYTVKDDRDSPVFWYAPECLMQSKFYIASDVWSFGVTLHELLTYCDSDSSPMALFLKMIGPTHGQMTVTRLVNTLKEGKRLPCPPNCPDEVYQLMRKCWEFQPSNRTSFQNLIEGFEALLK

Compound: Nc1cnc(N2CCc3cc(S(=O)(=O)Nc4c(F)cc(Cl)cc4F)cc(N4CCCC4=O)c32)nc1 [TP-020n]
- % of control [1]: 100%

- % of control [2]: 70%
Compound: CC(=O)Nc1cccc(-n2c(=O)n(C3CC3)c(=O)c3c(Nc4ccc(I)cc4F)n(C)c(=O)c(C)c32)c1

Compound: CNC(=O)Nc1ccc(-c2nc(N3CC4CCC(C3)O4)c3cnn(C4CCC5(CC4)OCCO5)c3n2)cc1
- % of control [3]: 90%

Compound: COCC(=O)NC/C=C/c1ccc2ncnc(Nc3ccc(Oc4ccc(C)nc4)c(C)c3)c2c1 [CP-724714]
- % of control [4]: 100%

Compound: C=CC(=O)Nc1ccc(C(=O)Nc2[nH]nc3c2CN(C(=O)N[C@H](CN(C)C)c2ccccc2)C3(C)C)cc1
- % of engagement [5]: -0.7%

Compound: Cc1cc([C@@H](C)Nc2ccccc2C(=O)O)c2nc(N3CCOCC3)cc(=O)n2c1 [AZD-6482]
- % of control [6]: 0.4%

- % of inhibition [7]: 51.5%
Compound: CC[C@@H]1[C@H](F)C(=O)N[C@@H]1COc1nccc2cc(C(N)=O)c(OC)cc12 [ZIMLOVISERTIB]

- dTM [8]: -1.97 K
Compound: Cc1cc(CN)cc(C)c1-c1ncn(C)c1-c1cncn1C

- % of inhibition [9]: 101%
Compound: Cn1cc(Nc2nccc(N3CC4CCC(C3)N4C(=O)[C@@H]3CC3(F)F)n2)cn1
